Assay results taken from US20040048350A1 (priority 2001, published 2004).
pKi: −log10 of the molar value.

Legend:
Taq RNAP holoenzyme = biological target: T1, Taq RNAP holoenzyme (Thermus aquaticus, UniProt Q9KWU7); assay: Transcription assay, T7A1 promoter template, rifampicin inhibition of Taq RNAP holoenzyme; format: biochemical; details: CpA primer, 37° C., read-out: Ki (estimated from the rifampicin concentration where the production of long transcripts was inhibited by 50%)
T1 construct: Taq core RNAP purified from Taq cells; made in house; host or cells: core: purified natively from Thermus aquaticus cells; σA: recombinant in E. coli
From the text: (§1) FIG. 2a depicts autoradiographs showing the radioactive RNA produced by Taq (lanes 1-7) and E. coli (lanes 8-13) RNAP holoenzymes transcribing a template containing the T7 A1 promoter and the tR2 terminator, analyzed on a 15% polyacrylamide gel and quantitated by phosphorimagery. In the absence of rifampicin (lanes 1 and 8), the major RNA products from each RNAP correspond to a trimeric abortive product (CpApU), a 105 nucleotide terminated transcript (Term), and a 127 nucleotide runoff transcript (Run off). Lanes 2-7 and 9-13 show the effects of increasing concentrations of rifampicin. […] Rif-nucleotide compounds (Rif-(CH2)n-Ap) with different linker lengths, n (indicated above each lane) were bound to RNAP, then extended in a specific transcription reaction with α-[^32P]UTP by the RNAP catalytic activity. The products were analyzed on a 23% polyacrylamide gel, visualized by autoradiography, and quantitated by phosphorimagery.
(§2) The transcription assay comparing rifampicin inhibition of E.coli and Taq RNAPs (FIG. 2a) was performed as previously described [Nudler et al., Science 265:793-796 (1994)]. Briefly, 0.1 pmol of purified Taq core RNAP [Zhang et al., Cell 98:811-824 (1999); U.S. Ser. No. 09/396,651, Filed Sep. […] Radioactive RNA products were analyzed on a 15% polyacrylamide sequencing gel.

E. coli RNAP holoenzyme = E. coli RNAP holoenzyme (Escherichia coli, UniProt P0A8V2); assay: Transcription assay, T7A1 promoter template, rifampicin inhibition of E. coli RNAP holoenzyme; format: biochemical; details: CpA primer, 37° C., read-out: Ki (estimated from the rifampicin concentration where the production of long transcripts was inhibited by 50%)
From the text: as §1, §2

Compound: CO[C@H]1/C=C/O[C@@]2(C)Oc3c(C)c(O)c4c(O)c(c(/C=N/N5CCN(C)CC5)c(O)c4c3C2=O)NC(=O)/C(C)=C\C=C\[C@H](C)[C@H](O)[C@@H](C)[C@@H](O)[C@@H](C)[C@H](OC(C)=O)[C@@H]1C [rifampicin]
- pKi (Taq RNAP holoenzyme): ~5.00
- pKi (E. coli RNAP holoenzyme): ~7.00
